These compounds were tested against T1, human NK3 receptor (Homo sapiens, UniProt P29371) (assay: [3H]SR142801 competition binding assay). Conditions: membrane from HEK293 cells transiently expressing recombinant human NK3 receptor; radioligand [3H]SR142801; Ki from IC50 by Cheng-Prussoff equation.
T1 construct: expressed in transfected cells; host or cells: HEK293 cells (transient expression), membranes
T1 sequence (P29371 1-465): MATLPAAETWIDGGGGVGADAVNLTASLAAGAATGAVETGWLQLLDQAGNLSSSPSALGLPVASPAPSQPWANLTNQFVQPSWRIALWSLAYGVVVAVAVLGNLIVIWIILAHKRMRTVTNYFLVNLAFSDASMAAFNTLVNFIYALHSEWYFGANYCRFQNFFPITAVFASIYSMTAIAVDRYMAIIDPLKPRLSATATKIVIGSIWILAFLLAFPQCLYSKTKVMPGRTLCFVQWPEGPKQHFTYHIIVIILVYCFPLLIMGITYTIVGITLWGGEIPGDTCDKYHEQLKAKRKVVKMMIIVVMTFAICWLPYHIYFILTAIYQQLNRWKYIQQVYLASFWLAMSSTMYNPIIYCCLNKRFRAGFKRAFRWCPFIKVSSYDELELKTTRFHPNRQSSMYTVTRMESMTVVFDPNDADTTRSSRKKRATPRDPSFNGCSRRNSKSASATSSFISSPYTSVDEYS
Method: [^3H]SR142801 Competition Binding Assay
hNK3 receptor binding experiment were performed using [^3H]SR142801 (Catalog No. TRK1035, specific activity: 74.0 Ci/mmol, Amersham, GE Healthcare UK limited, Buckinghamshire, UK) and membrane isolated from HEK293 cells transiently expressing recombinant human NK3 receptor. After thawing, the membrane homogenates were centrifuged at 48,000×g for 10 min at 4° C., the pellets were resuspended in the 50 mM Tris-HCl, 4 mM MnCl2, 1 μM phosphoramidon, 0.1% BSA binding buffer at pH 7.4 to a final assay concentration of 5 μg protein/well. […] At the end of the incubation, membranes were filtered onto unitfilter (96-well white microplate with bonded GF/C filter preincubated 1 h in 0.3% PEI+0.3% BSA, Packard BioScience, Meriden, Conn.) with a Filtermate 196 harvester (Packard BioScience) and washed 4 times with ice-cold 50 mM Tris-HCl, pH 7.4 buffer. Nonspecific binding was measured in the presence of 10 μM SB222200 for both radioligands. The radioactivity on the filter was counted (5 min) on a Packard Top-count microplate scintillation counter with quenching correction after addition of 45 μl of microscint 40 (Canberra Packard S. A., Zürich, Switzerland) and shaking for 1 h. Inhibition curves were fitted according to the Hill equation: y=100/(1+(x/IC50)^nH), where nH=slope factor using Excel-fit 4 software (Microsoft). IC50 values were derived from the inhibition curve and the affinity constant (Ki) values were calculated using the Cheng-Prussoff equation Ki=IC50/(1+[L]/KD) where [L] is the concentration of radioligand and KD is its dissociation constant at the receptor, derived from the saturation isotherm. All experiments were performed in duplicate and the mean±standard error (SEM) of the individual Ki values was calculated.

SMILES	Ki [nM]
CS(=O)(=O)N1CCN(C(=O)N2C[C@H](CSc3ccc(C(F)(F)F)cc3)[C@@H](c3ccc(Cl)c(Cl)c3)C2)CC1 (racemic) [Example 1, (3SR,4RS)-[3-(3,4-Dichloro-phenyl)-4-(4-trifluoromethyl-phenylsulfanylmethyl)-pyrrolidin-1-yl]-(4-methanesulfonyl-piperazin-1-yl)-methanone]	49.6
CS(=O)(=O)N1CCN(C(=O)N2C[C@H](CSc3ccc(Cl)cc3)[C@@H](c3ccc(Cl)c(Cl)c3)C2)CC1 (racemic) [Example 2]	45.9
CS(=O)(=O)N1CCN(C(=O)N2C[C@H](CSc3ccc(C#N)cc3)[C@@H](c3ccc(Cl)c(Cl)c3)C2)CC1 (racemic) [Example 4, (3SR,4RS)-4-[4-(3,4-Dichloro-phenyl)-1-(4-methanesulfonyl-piperazine-1-carbonyl)-pyrrolidin-3-ylmethylsulfanyl]-benzonitrile]	61.7
CS(=O)(=O)N1CCN(C(=O)N2C[C@H](CSc3ccc(C(F)(F)F)cn3)[C@@H](c3ccc(Cl)c(Cl)c3)C2)CC1 (racemic) [Example 5, (3SR,4RS)-[3-(3,4-Dichloro-phenyl)-4-(5-trifluoromethyl-pyridin-2-ylsulfanylmethyl)-pyrrolidin-1-yl]-(4-methanesulfonyl-piperazin-1-yl)-methanone]	2.4
CS(=O)(=O)N1CCN(C(=O)N2C[C@H](CSc3ccc(Cl)cn3)[C@@H](c3ccc(Cl)c(Cl)c3)C2)CC1 (racemic) [Example 6, (3SR,4RS)-[3-(5-Chloro-pyridin-2-ylsulfanylmethyl)-4-(3,4-dichloro-phenyl)-pyrrolidin-1-yl]-(4-methanesulfonyl-piperazin-1-yl)-methanone]	2.2
CS(=O)(=O)N1CCN(C(=O)N2CC(CNc3ccc(C(F)(F)F)cn3)C(c3ccc(Cl)c(Cl)c3)C2)CC1 (racemic) [Example 12, (3SR,4RS)-{3-(3,4-Dichloro-phenyl)-4-[(5-trifluoromethyl-pyridin-2-ylamino)-methyl]-pyrrolidin-1-yl}-(4-methanesulfonyl-piperazin-1-yl)-methanone]	20
CN(C[C@H]1CN(C(=O)N2CCN(S(C)(=O)=O)CC2)C[C@@H]1c1ccc(Cl)c(Cl)c1)c1ccc(C(F)(F)F)cn1 (racemic) [Example 15]	78.8
N#Cc1ccc(C(=O)N2CC(CNc3ccc(C(F)(F)F)cn3)C(c3ccc(Cl)c(Cl)c3)C2)cn1 (racemic) [Example 17, (3SR,4RS)-5-{3-(3,4-Dichloro-phenyl)-4-[(5-trifluoromethyl-pyridin-2-ylamino)-methyl]-pyrrolidine-1-carbonyl}-pyridine-2-carbonitrile]	9.6
CC(=O)N1CCC(C(=O)N2C[C@H](CNc3ccc(C(F)(F)F)cn3)[C@@H](c3ccc(Cl)c(Cl)c3)C2)CC1 (racemic) [Example 19]	10.3
Cc1cc(C(=O)N2C[C@H](CNc3ccc(C(F)(F)F)cn3)[C@@H](c3ccc(Cl)c(Cl)c3)C2)cnn1 (racemic) [Example 20]	11
CC1(C(=O)N2CCC(C(=O)N3C[C@H](CNc4ccc(C(F)(F)F)cn4)[C@@H](c4ccc(Cl)c(Cl)c4)C3)CC2)CC1 (racemic) [Example 21]	8.9
O=C(c1ccnnc1)N1C[C@H](CNc2ccc(C(F)(F)F)cn2)[C@@H](c2ccc(Cl)c(Cl)c2)C1 (racemic) [Example 22]	98.6
Cc1cc(C(=O)N2C[C@H](CNc3ccc(C(F)(F)F)cn3)[C@@H](c3ccc(Cl)c(Cl)c3)C2)c(C)nn1 (racemic) [Example 23]	10.9
CC1(C(=O)N2CCC(C(=O)N3C[C@H](CNc4ncc(Cl)cn4)[C@@H](c4ccc(Cl)c(Cl)c4)C3)CC2)CC1 (racemic) [Example 24]	16.5
CC(=O)N1CCC(C(=O)N2C[C@H](CNc3ncc(Cl)cn3)[C@@H](c3ccc(Cl)c(Cl)c3)C2)CC1 (racemic) [Example 25]	19.5
N#Cc1ccc(C(=O)N2C[C@H](CNc3ncc(Cl)cn3)[C@@H](c3ccc(Cl)c(Cl)c3)C2)cn1 (racemic) [Example 26]	46.3
Cc1cc(C(=O)N2C[C@H](CNc3ncc(Cl)cn3)[C@@H](c3ccc(Cl)c(Cl)c3)C2)cnn1 (racemic) [Example 27]	24.7
CS(=O)(=O)N1CCN(C(=O)N2C[C@H](CNc3ccc(C(F)(F)F)cc3)[C@@H](c3ccc(Cl)c(Cl)c3)C2)CC1 (racemic) [Example 28]	58.5
CS(=O)(=O)N1CCN(C(=O)N2C[C@H](CNc3ccc(Cl)cn3)[C@@H](c3ccc(Cl)c(Cl)c3)C2)CC1 (racemic) [Example 30]	36.1
CS(=O)(=O)N1CCN(C(=O)N2CC(CNc3ncc(C#N)cn3)C(c3ccc(Cl)c(Cl)c3)C2)CC1 (racemic) [Example 31, (3SR,4RS)-2-{[4-(3,4-Dichloro-phenyl)-1-(4-methanesulfonyl-piperazine-1-carbonyl)-pyrrolidin-3-ylmethyl]-amino}-pyrimidine-5-carbonitrile]	80
CC(=O)N1CCC(C(=O)N2C[C@H](CNc3ncc(C(F)(F)F)cn3)[C@@H](c3ccc(Cl)c(Cl)c3)C2)CC1 (racemic) [Example 33]	7.5
CC1(C(=O)N2CCC(C(=O)N3C[C@H](CNc4ncc(C(F)(F)F)cn4)[C@@H](c4ccc(Cl)c(Cl)c4)C3)CC2)CC1 (racemic) [Example 34]	6.2
Cc1cc(C(=O)N2C[C@H](CNc3ncc(C(F)(F)F)cn3)[C@@H](c3ccc(Cl)c(Cl)c3)C2)cnn1 (racemic) [Example 35]	9
CC(Nc1ccc(C#N)cn1)[C@H]1CN(C(=O)N2CCN(S(C)(=O)=O)CC2)C[C@@H]1c1ccc(Cl)c(Cl)c1 (mixture of isomers) [Example 36, (3SR,4RS) 6-{1-(RS)-[4-(3,4-Dichloro-phenyl)-1-(4-methanesulfonyl-piperazine-1-carbonyl)-pyrrolidin-3-yl]-ethylamino}-nicotinonitrile and (3SR,4RS) 6-{1-(SR)-[4-(3,4-Dichloro-phenyl)-1-(4-methanesulfonyl-piperazine-1-carbonyl)-pyrrolidin-3-yl]-ethylamino}-nicotinonitrile]	68.2
CC(Nc1ccc(C(F)(F)F)cn1)[C@H]1CN(C(=O)N2CCN(S(C)(=O)=O)CC2)C[C@@H]1c1ccc(Cl)c(Cl)c1 (mixture of isomers) [Example 37, (3SR,4RS) {3-(3,4-Dichloro-phenyl)-4-[1-(RS)-(5-trifluoromethyl-pyridin-2-ylamino)-ethyl]-pyrrolidin-1-yl}-(4-methanesulfonyl-piperazin-1-yl)-methanone and (3SR,4RS) {3-(3,4-Dichloro-phenyl)-4-[1-(SR)-(5-trifluoromethyl-pyridin-2-ylamino)-ethyl]-pyrrolidin-1-yl}-(4-methanesulfonyl-piperazin-1-yl)-methanone]	54.9
C[C@@H](Nc1ccc(C(F)(F)F)cn1)[C@H]1CN(C(=O)N2CCN(S(C)(=O)=O)CC2)C[C@@H]1c1ccc(Cl)c(Cl)c1 (racemic) [Example 38, (3SR,4RS) {3-(3,4-Dichloro-phenyl)-4-[1-(RS)-(5-trifluoromethyl-pyridin-2-ylamino)-ethyl]-pyrrolidin-1-yl}-(4-methanesulfonyl-piperazin-1-yl)-methanone]	22.3

From patent publication US8318759B2, “Pyrrolidine derivatives as NK3 receptor antagonists” (Hoffmann-La Roche Inc., priority 2009, dated 2012)
